According to patent US7943318B2, “Microrna-based methods and compositions for the diagnosis, prognosis and treatment of lung cancer” (The Ohio State University Research Foundation, priority 2006, dated 2011):

How the values were obtained:
[1] = system: miRNA expression in A549 and NCI-H157 lung cancer cells; experiment: miRNA microarray after treatment with 5-aza-dC and/or TSA; format: cell-based, human; conditions: 1.0 μM, triplicate
Experimental: Microarray analysis was performed as previously described (Liu, C. G., et al., Proc. Natl. Acad. Sci. U.S.A. 101:9740-9744 (2004)). Briefly, 5 μg of total RNA was hybridized with miRNA microarray chips containing 352 probes in triplicate. Specifically, these chips contain gene-specific 40-mer oligonucleotide probes, spotted by contacting technologies and covalently attached to a polymeric matrix, which were generated from 161 human miRNAs, 84 mouse miRNAs, miRNAs from three other species and tRNA. The microarrays were hybridized in 6×SSPE (0.9 M NaCl/60 mM NaH2PO4.H2O/8 mM EDTA, pH 7.4)/30% formamide at 25° C. for 18 hr, washed in 0.75×TNT (Tris.HCl/NaCl/Tween 20) at 37° C. for 40 min, and processed using a method of direct detection of biotin-containing transcripts by streptavidin-Alexa647 conjugate (Molecular Probes, Carlsbad, Calif.). Processed slides were scanned using a PerkinElmer ScanArray XL5K Scanner, with the laser set to 635 nm, at Power 80 and PMT 70 setting, and a scan resolution of 10 μm. An average value of the three spot replicates for each miRNA was normalized and analyzed in BRB-ArrayTools version 3.2.3. After excluding negative values with hybridization intensity below background, normalization was performed by using a per chip on median normalization method and normalization to median array as reference. […]

[2] = system: MYO18B mRNA in lung cancer cell lines (H157, A549); experiment: MYO18B mRNA expression after treatment with 5-aza-dC and/or TSA, RT-PCR analysis; format: cell-based, human; conditions: 1.0 μM, FIG. 12
Experimental: FIG. 12 depicts the expression of MYO18B mRNA after treatment with 5-aza-dC and/or TSA in two lung cancer cell lines (H157, A549), as determined by RT-PCR analysis. Lane 1, no treatment; lane 2, treatment with 1.0 μM 5-aza-dC for 72 hr; lane 3, treatment with 1.0 μM TSA for 24 hr; lane 4, treatment with 1.0 μM 5-aza-dC for 72 hours, followed by treatment with 1.0 μM TSA for 24 hr. GAPDH expression served as a loading control.
A549 and NCI-H157 lung cancer cells (available from the American Tissue Culture Collection) were incubated with medium containing 1.0 μM 5-aza-dC (Sigma, St. Louis, Mo.) for 48 hr, then were incubated for an additional 24 hr in the presence of 1.0 μM TSA (Sigma, St. Louis, Mo.). Total RNA was isolated with TRIzol® Reagent (Invitrogen), and microarray analysis was performed as described above. Each treatment was performed in triplicate.
miRNA microarrays were used to analyze the expression of various miRNAs upon treatment with 5-aza-2′-deoxycytidine (5-aza-dC), a DNA methylation inhibitor, and/or Trichostatin A (TSA), a potent histone deacteylase inhibitor, in two lung cancer cell lines (A549 and NCI-H157).

| SMILES | changes in miRNA expression on microarray after treatment [1] | expression of MYO18B (transcriptionally-silenced gene) following treatment [2] |
| --- | --- | --- |
| CC(/C=C/C(=O)NO)=C\[C@@H](C)C(=O)c1ccc(N(C)C)cc1 [TSA, Trichostatin A] | no miRNAs from the microarray displayed statistically-significant changes in expression | increased expression |
| Nc1ncn([C@H]2C[C@H](O)[C@@H](CO)O2)c(=O)n1 [5-aza-dC, 5-aza-2′-deoxycytidine] | no miRNAs from the microarray displayed statistically-significant changes in expression | increased expression |
